Data on 7 compounds can be found in patent US8993594B2, “Isoquinolin-1(2H)-one derivatives as PARP-1 inhibitors” (Nerviano Medical Sciences S.R.L., priority 2009, dated 2015).

As usually defined, the Kd is the constant that tells how readily two partners part at equilibrium. Read a low Kd as a tighter complex. As usually defined, the IC50 is the concentration needed to halve the response being measured. The low end stands for higher potency, the high end for lower potency. The term AUC denotes concentration integrated over time.

Read-outs that look alike come from different tables or passages of the source.

One data set concerns the target PARP-1 FL (Homo sapiens, UniProt P09874). Nature of the data set: Fluorescence polarization probe displacement assay. It is filed as binding. The following applies: for DC50: half maximal displacement concentration.
The target in the next data set is PARP-2 FL (Homo sapiens, UniProt Q9UGN5). In words: Fluorescence polarization probe displacement assay. It is filed as binding. The following applies: for DC50: compound P1 as the probe. (In fluorescence polarisation assays a small probe gives low polarisation when free and higher when bound to something large.)
The target in the next data set is T1, PARP-3 FL (Homo sapiens, UniProt Q9Y6F1).
T1 sequence (Q9Y6F1 1-533): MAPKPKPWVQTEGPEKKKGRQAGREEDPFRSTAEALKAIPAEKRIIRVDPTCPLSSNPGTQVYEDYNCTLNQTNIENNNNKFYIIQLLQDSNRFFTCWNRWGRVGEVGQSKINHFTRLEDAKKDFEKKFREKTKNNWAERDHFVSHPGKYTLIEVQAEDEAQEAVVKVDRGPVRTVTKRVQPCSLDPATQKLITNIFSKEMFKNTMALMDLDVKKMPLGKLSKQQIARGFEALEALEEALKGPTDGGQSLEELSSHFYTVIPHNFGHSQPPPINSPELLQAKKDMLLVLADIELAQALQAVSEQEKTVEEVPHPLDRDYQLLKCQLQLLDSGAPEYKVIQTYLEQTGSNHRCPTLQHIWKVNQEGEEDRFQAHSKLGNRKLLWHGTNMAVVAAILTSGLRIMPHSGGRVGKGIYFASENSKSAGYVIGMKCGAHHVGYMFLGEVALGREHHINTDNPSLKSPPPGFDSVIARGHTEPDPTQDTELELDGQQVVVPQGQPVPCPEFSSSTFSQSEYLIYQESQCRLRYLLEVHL
Nature of the data set: Fluorescence polarization probe displacement assay. The following applies: compound P1 as the probe. It is filed as binding.

The subject of data set [1] is hydrogen peroxide induced PAR formation in HeLa cells. In words: Cellular PAR assay (inhibition of hydrogen peroxide induced PAR formation). It is filed as cell-based. The following applies: Homo sapiens, 0.1 mM hydrogen peroxide 15 min.
Method: Compounds potencies were evaluated by measuring the inhibition of poly (ADP-ribose) (PAR) chains formation as a marker for PARP-1 inhibition.
Cellular activity of PARP-1 inhibitors was assessed by measuring the inhibition of the hydrogen peroxide induced PAR formation in HeLa cells (ECACC). Cellular PAR levels were measured by immunocytochemistry and quantified using an ArrayScan vTi instrument (Cellomics Thermo Scientific).
Studies were performed as follows: 6000 cells/well were seeded in 96 well plates (Perkin Elmer) in MEM/10% FCS and incubated for 24 hours at 37° C., 5% carbon dioxide. Test compounds were then added at the required concentration for 30′. […] Concentration curves were prepared in MEM/10% FCS from compound stocks in DMSO and final DMSO concentration was 0.002% (v/v). Duplicate wells for each concentration point were prepared with a typical highest compound concentration of 20 μM and serial dilution 1:3. […] Non-specific binding sites were blocked by incubating wells for 30 min in PBS containing 5% (w/v) FBS 0.05% tween20. […] After washing further 3 times in PBS, cellular PAR immunoreactivity was assessed using the ArrayScan vTi instrument, with a Zeiss 10×0.5 N.A. objective, and applying the Cytotoxicity.V3 algorithm (Cellomics/Thermo Fisher) with a XF100 filter. At least 10 fields, corresponding to at least 900 cells, were read for each well.
The following formula is used: IC50=Bottom+(Top−Bottom)/(1+10^((Log EC50−X))); X is the logarithm of concentration. IC50 is the response; IC50 starts at Bottom and goes to Top with a sigmoid shape.
Data set [2] in a line: Pharmacokinetics and oral bioavailability in the mouse. Format: in vivo. The following applies: for F on AUC: 10 mg/kg, ratio of oral to IV dose-normalized plasma AUC; for clearance / Vd / AUC / half-life: male, Balb Nu/Nu, plasma, mean value; for clearance / Vd: 10 mg/kg intravenous bolus; for clearance: read-out: CL(IV bolus); for Vd: read-out: Vdss (IV bolus); for AUC / half-life: 10 mg/kg oral; for half-life: read-out: T½ (oral) (converted).
Method: The compounds were formulated in 10% tween 80/dextrose for intravenous bolus administration while oral administrations were performed using the compounds formulated in 0.5% methylcellulose. A single administration at the dose of 10 mg/kg was given and three male animals for each route were used. […] Plasma samples were prepared by plasma proteins precipitation adding 200 µl of methanol to 10 µl of plasma in a 96 well plate. […] The supernatant was considered as final extract and injected onto the LC-MS-MS system (HPLC system: Hewlett Packard 1100 series using Atlantis HILIC Silica 50*2.1 mm 5.0 μM analytical column; MS instrument: Perkin Elmer SCIEX API 2000 and ionization performed with Turbo Ion Spray in positive ion mode). Lower limit of quantification is 5.0 ng/ml, upper limit of quantification is 10000 ng/ml. […] Non-compartmental method (linear trapezoidal rule and linear regression analysis of natural log-transformed plasma concentrations vs. time data) was used. After intravenous dosing, C0 was set equal to C0.083, Absolute bioavailability (F) was calculated from the ratio of average oral to IV (intravenous) dose-normalized plasma AUC (area under curve) values.

The test system of data set [3] is Capan-1 human pancreatic cancer tumors. Nature of the data set: In vivo efficacy as single agent, Capan-1 BRCA-2 mutated mouse model. The following applies: oral; for Toxicity: body weight reduction and survival. From the text:
Each group included seven animals. The treatment started one day after randomization.

Data set [4] shares this test system. The following applies: for T − C: delay to reach 1 g.
From the text: Balb, athymic Nu/Nu male mice, from Harlan (Italy), were maintained in agreement with the European Communities Council Directive no. 86/609/EEC concerning the protection of animals used for experimental or other scientific purposes, in cages with paper filter cover, food and bedding sterilized and acidified water. Fragments of Capan-1 human pancreatic cancer tumors were implanted subcutaneously. Mice bearing a palpable tumor (100-200 mm^3) were selected and randomized into control and treated groups. Each group included seven animals. The treatment started one day after randomization. Compound of formula (I) was administered by oral route as a methocel suspension at the doses of 100 mg/kg daily or twice a day for the indicated times.
Compound (39) was administered by oral route at the dose of 100 mg/kg twice a day for ten consecutive days (days 1 to 10). […] Tumor growth and body weight were measured every 3 days. Tumor growth was assessed by caliper. The two diameters were recorded and the tumor weight was calculated according to the following formula: length (mm)×width^2/2. […] This delay (T−C value) was defined as the difference of time (in days) required for the treatment group (T) and the control group (C) tumors to reach a predetermined size (1 g). Toxicity was evaluated on the basis of body weight reduction and animal survival rate.
Data set [5] deals with ovarian cancer patients with confirmed BRCA-1 mutations. The following applies: preliminary phase I data; cited from earlier work.
Setting [6] is: 100 mg/kg, days 1-10 twice a day.
[7] abbreviates: Compound (39) alone, oral 100 mg/kg twice a day, days 1 to 10.
Where [8] appears, read: 150 mg/kg, days 1-14 twice a day.
Setting [9] is: 100 mg/kg, days 1-20 once a day.
Setting [10] is: temozolomide alone, oral 50 mg/kg once a day, days 3, 4, 5, 6 and 7.

PARP-1 FL, sequence (P09874 whole entry): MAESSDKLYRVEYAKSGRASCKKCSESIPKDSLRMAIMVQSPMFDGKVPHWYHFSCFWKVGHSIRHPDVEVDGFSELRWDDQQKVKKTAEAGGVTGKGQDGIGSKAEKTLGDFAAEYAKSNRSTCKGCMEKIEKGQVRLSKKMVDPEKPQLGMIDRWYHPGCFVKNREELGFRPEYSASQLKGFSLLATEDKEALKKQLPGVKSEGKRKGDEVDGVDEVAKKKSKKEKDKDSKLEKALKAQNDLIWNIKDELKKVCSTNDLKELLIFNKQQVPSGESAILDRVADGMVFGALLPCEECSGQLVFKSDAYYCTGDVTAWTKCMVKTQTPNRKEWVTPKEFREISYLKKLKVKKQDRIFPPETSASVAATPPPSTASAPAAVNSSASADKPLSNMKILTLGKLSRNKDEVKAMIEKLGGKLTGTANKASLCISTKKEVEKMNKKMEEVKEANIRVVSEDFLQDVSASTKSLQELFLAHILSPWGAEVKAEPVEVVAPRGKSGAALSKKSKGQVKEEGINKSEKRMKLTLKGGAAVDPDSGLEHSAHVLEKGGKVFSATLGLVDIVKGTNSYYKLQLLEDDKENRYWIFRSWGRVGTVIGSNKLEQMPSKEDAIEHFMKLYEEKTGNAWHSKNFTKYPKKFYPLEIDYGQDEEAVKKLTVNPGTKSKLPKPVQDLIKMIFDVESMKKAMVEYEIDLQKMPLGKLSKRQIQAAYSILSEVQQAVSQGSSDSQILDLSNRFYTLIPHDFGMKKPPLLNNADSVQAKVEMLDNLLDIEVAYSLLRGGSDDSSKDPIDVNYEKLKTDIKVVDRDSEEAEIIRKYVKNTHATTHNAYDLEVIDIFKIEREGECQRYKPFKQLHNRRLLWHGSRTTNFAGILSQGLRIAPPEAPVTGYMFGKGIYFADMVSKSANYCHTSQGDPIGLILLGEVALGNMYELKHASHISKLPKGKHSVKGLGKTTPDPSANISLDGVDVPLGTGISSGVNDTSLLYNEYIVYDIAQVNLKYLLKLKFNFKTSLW
PARP-2 FL, sequence (Q9UGN5 whole entry): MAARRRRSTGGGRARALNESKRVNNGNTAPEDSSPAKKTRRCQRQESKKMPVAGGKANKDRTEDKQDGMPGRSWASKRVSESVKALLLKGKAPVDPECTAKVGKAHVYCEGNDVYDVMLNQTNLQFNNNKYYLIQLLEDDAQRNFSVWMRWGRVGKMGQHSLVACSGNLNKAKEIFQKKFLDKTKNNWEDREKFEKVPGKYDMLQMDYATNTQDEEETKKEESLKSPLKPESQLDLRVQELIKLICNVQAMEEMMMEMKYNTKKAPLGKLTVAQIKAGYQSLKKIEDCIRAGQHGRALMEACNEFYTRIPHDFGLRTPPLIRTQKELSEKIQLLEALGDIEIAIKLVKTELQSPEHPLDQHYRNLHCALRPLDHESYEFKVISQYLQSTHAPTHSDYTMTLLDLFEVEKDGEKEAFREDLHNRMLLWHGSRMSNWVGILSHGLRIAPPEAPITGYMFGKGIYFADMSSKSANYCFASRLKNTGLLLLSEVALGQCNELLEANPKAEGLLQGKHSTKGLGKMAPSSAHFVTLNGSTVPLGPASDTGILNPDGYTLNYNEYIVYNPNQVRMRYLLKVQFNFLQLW
Method for PARP-1 FL: (§1) Affinity of the tested compounds and their selectivity with respect to the different PARP isoforms of interest was quantified in a displacement assay.
(§2) In all of the experiments, the polarization signal was measured using a Saphire2 plate reader (Tecan). Data analysis was performed using Dynafit software. In particular, titration data were fitted to the following equilibria: Enzyme+probe <==> Complex Enzyme-probe, while displacement data were fitted to the following equilibria: Enzyme+probe <==> Complex Enzyme-probe, Enzyme+Compound <==> Complex Enzyme-Compound, whereby binding of probe and compound on the enzyme are mutually exclusive (pure competitive mechanism). Displacement data were also fitted using Excel spreadsheet (Microsoft Inc. Seattle, USA) to a four parameter logistic model (4PL), or Hill-Slope model to calculate DC50s where the DC50 value represents the compound concentration at which the polarization signal is diminished by 50% compared to untreated controls.
(§3) In agreement, affinity binding constants (KD) were determined by fitting with a pure competitive mechanism. KD values are the average of three independent experiments.
Method for PARP-2 FL: as §1, §2, §3
Method for PARP-3 FL: as §1, §2, §3

With `Cl.NCCOc1c(-c2ccccc2)[nH]c(=O)c2cc(F)ccc12` [Compound 39, 4-(2-Amino-ethoxy)-7-fluoro-3-phenyl-2H-isoquinolin-1-one hydrochloride], at PARP-1 FL, the Kd was under 0.01 µM and the DC50 was under 0.25 µM. For the same compound, at PARP-2 FL, the Kd is 4.38 µM and the DC50 came to 3.32 µM. The compound further showed a DC50 at PARP-3 FL of 0.28 µM. The compound also displayed an IC50 in data set [1] of 0.06 µM. In data set [2], the “F on AUC” value was determined as 72%, the clearance was 37.9 mL/min/kg, the Vd turned out to be 1.7 L/kg and the AUC turned out to be 11 µM·h. Also, the half-life in data set [2] is 1.06 h. Moreover, in data set [3] (setting [6]), the “Max TGI (%)” value came out at 48% and the Toxicity is listed as 0/7. In addition, in data set [4] (setting [7]), the Toxicity was 0/7 and the “T − C” value was 3 days. The “Interaction of the combination (T−C versus addition of single treatments)” value in data set [4] (compound (39) combined with temozolomide) is given as “strong synergism”.

For `COc1cccc(-c2[nH]c(=O)c3ccccc3c2OCCN)c1.Cl` [Compound 11, 4-(2-Amino-ethoxy)-3-(3-methoxy-phenyl)-2H-isoquinolin-1-one hydrochloride], on PARP-1 FL, the Kd was under 0.03 µM and the DC50 was under 0.25 µM. Also, at PARP-3 FL, the DC50 is 0.35 µM. The half-maximal inhibitory concentration (IC50) in data set [1] worked out at 0.18 µM. In data set [2], the “F on AUC” value stood at 64%, the clearance amounted to 120 mL/min/kg, the Vd was found to be 2.6 L/kg and the AUC stood at 2.94 µM·h. Besides, in data set [2], the half-life was 1.01 h. Also, in data set [3] (setting [8]), the “Max TGI (%)” value was 31% and the Toxicity was 0/7.

With `COc1ccc(-c2[nH]c(=O)c3cc(F)ccc3c2OCCN)cc1.Cl` [Compound 25, 4-(2-Amino-ethoxy)-7-fluoro-3-(4-methoxy-phenyl)-2H-isoquinolin-1-one hydrochloride], on PARP-1 FL, the Kd is under 0.01 µM and the DC50 is under 0.25 µM. Moreover, on PARP-2 FL, binding was characterised by a dissociation constant (Kd) of 0.61 µM and the DC50 is 2.29 µM. This compound showed a DC50 at PARP-3 FL of 0.21 µM. This compound registered an IC50 in data set [1] of 0.06 µM. In data set [2], the “F on AUC” value was found to be 71%, the clearance was 42.2 mL/min/kg, the Vd was determined as 2.3 L/kg and the AUC was 8.32 µM·h. Moreover, the half-life in data set [2] is 2.17 h. Moreover, in data set [3] (setting [9]), the “Max TGI (%)” value was 18% and the Toxicity is 0/7.

For the compound `Cn1nnc2c(C(N)=O)ncn2c1=O` [temozolomide, reference compound], in data set [4] (setting [10]), the Toxicity was 0/7 and the “T − C” value was 3 days.

On PARP-1 FL, `O=c1[nH]c(-c2cccc(O)c2)c(OCCCN2CCCCC2)c2ccccc12` [Compound 33, 3-(3-Hydroxy-phenyl)-4-(3-piperidin-1-yl-propoxy)-2H-isoquinolin-1-one] registered a Kd of under 0.03 µM and a DC50 of under 0.25 µM. On PARP-2 FL, this compound gave a Kd of 0.25 µM and a DC50 of 0.58 µM. The same compound returned a DC50 at PARP-3 FL of 0.34 µM. Moreover, the 50% inhibitory concentration (IC50) in data set [1] was 0.41 µM. Besides, in data set [2], the “F on AUC” value came to 24%, the clearance worked out at 176 mL/min/kg, the Vd amounted to 2.9 L/kg and the AUC stood at 0.64 µM·h. Besides, in data set [2], the half-life was 1.11 h.

At PARP-1 FL, `Cl.NCCOc1c(-c2cccc(Cl)c2)[nH]c(=O)c2ccccc12` [Compound 48, 4-(2-Amino-ethoxy)-3-(3-chloro-phenyl)-2H-isoquinolin-1-one hydrochloride] displayed a Kd of under 0.01 µM and a DC50 of under 0.25 µM. On PARP-2 FL, binding was characterised by a dissociation constant (Kd) of 0.51 µM and the DC50 amounted to 1.16 µM. For the same compound, at PARP-3 FL, the DC50 turned out to be 0.33 µM. The IC50 in data set [1] turned out to be 0.11 µM. In addition, in data set [2], the “F on AUC” value stood at 27%, the clearance is 59.9 mL/min/kg, the Vd amounted to 4.1 L/kg and the AUC is 2.39 µM·h. In data set [2], the half-life was 1.11 h.

For `O=C(c1cc(Cc2n[nH]c(=O)c3ccccc23)ccc1F)N1CCN(C(=O)C2CC2)CC1` [AZD2281], the Partial responses in data set [5] is 4 out of 10.
